From paper PMC4363635 (PLoS ONE, 2015)
Ends that are not written are not given here. Peptide text beside a SMILES is read from it.

How the values were obtained:
[1] = Stability in human plasma; format: in vitro ADME; conditions: human plasma in Krebs-Henseleit buffer
Experimental: (§1) In vitro chemical and metabolic stability was determined in cell medium and human plasma, respectively, using previously described procedures. In brief, 100 μg of peptide was incubated in Krebs-Henseleit buffer pH 7.4 with cell medium/plasma (500 μl) at 37°C while shaking. […] The enzyme reaction was further stopped by heating the solution at 95°C for 5 minutes. Next, the samples were centrifuged to precipitate the denatured proteins and the supernatant analyzed using UPLC-PDA. Appropriate placebo solutions were similarly prepared. Assuming first-order kinetics, the rate constant k was obtained from ln(Pt/Pt0) = -kt, from which the half-life was determined as t1/2 = ln(2)/k.

[2] = Stability in cell medium; format: in vitro ADME; conditions: cell medium in Krebs-Henseleit buffer, 37°C
Experimental: as §1

[3] = in vitro; conditions: human, Caco-2
[4] = test system: Caco-2 monolayer; assay: Caco-2 permeability assay; conditions: for intestinal permeability (in words): Caco-2 monolayer, 10 μM in HBSS
[5] = test system: MCF-7/AZ cells; assay: Collagen type I invasion assay; format: cell-based, human; conditions: 24 hours post-treatment; 1 μM, 100 nM and 10 nM; positive if collagen-invasion or cell-stretching at minimum 2 consecutive concentrations; n = 3
Experimental: Morphology changes of MCF-7/AZ cells were investigated using previously described methods [12]. […] Peptide solutions (S1 Table) (> 80% purity; all from GL Biochem, Shanghai, China) were prepared using ultrapure water and DMSO, obtaining final peptide concentrations of 1 μM (maximum 0.05% DMSO), 100 nM and 10 nM after 1:10 dilution using growth medium. […] To quantify these visual results, the number of cells containing invasive extensions were counted and compared to the total number of cells in the field.

[6] = human, pH 7.4, human plasma, Krebs-Henseleit buffer pH 7.4, 37°C, 0, 30 and 120 minutes, first-order kinetics, read-out: Plasma half-life (converted)
[7] = Krebs-Henseleit buffer pH 7.4 with cell medium, 0, 6 and 24 hours, first-order kinetics, read-out: Cell medium half-life (converted)
[8] = human, pH 7.4, footnote a, human plasma, 37°C, sampled up to 120 minutes, read-out: calculated half-life in plasma

NC(=O)C[C@H](NC(=O)[C@H](Cc1c[nH]c2ccccc12)NC(=O)[C@@H](N)CC(N)=O)C(=O)O [EDF-analogue, NWN] (H-Asn-Trp-Asn-OH; N-terminus and C-terminus assumed)
half-life [1, 6]: 4.47 h | half-life [2, 7]: 42 h | Papp A→B at 120 min, 10 μM [3]: 0.141 ×10⁻⁶ cm/s | efflux ratio at 120 min, 10 μM [3]: 1.1 | efflux ratio change using the PepT1 substrate LY ([4]; 10 μM peptide plus dipeptide LY (10 μM)): doubled | intestinal permeability (in words) [4]: can pass the intestinal barrier | intestinal permeability (in words) ([4]; listed as NWN): low intestinal permeability kinetics | absorption in humans (in vivo) corresponding to in vitro Papp values ([4]; in vivo-in vitro correlation studies ref 15, 33): 5–10%

EMRKSNNNFFHFLRRI [CSP]
half-life ([1]; human plasma, Krebs-Henseleit buffer pH 7.4, 37°C, 0, 30 and 120 minutes, first-order kinetics, read-out: Plasma half-life (converted)): 8.73 h | half-life [2, 7]: 45.8 h

EKMIG [PhrG, EKMIG]
half-life [1, 8]: 13.2 h | half-life [1, 6]: > 13 h | half-life ([2]; pH 7.4, Krebs-Henseleit buffer pH 7.4 with cell medium, 0, 6 and 24 hours, first-order kinetics, read-out: Cell medium half-life (converted)): 160 h | half-life ([2]; pH 7.4, footnote a, sampled up to 24 hours, read-out: calculated half-life in cell medium): 158 h | Papp A→B at 120 min, 10 μM [3]: < 0.0069 ×10⁻⁶ cm/s | Papp B→A at 120 min, 10 μM [3]: 0.0137 ×10⁻⁶ cm/s | intestinal permeability (in words) [4]: does not show any absorption from the intestinal lumen

ARNQT [PhrA]
tumour cell invasion through a type I collagen extracellular matrix (morphology scoring) [5]: did not induce invasive characteristics

NNWNN [EDF, NNWNN]
half-life [1, 8]: 13.2 h | half-life [1, 6]: > 13 h | half-life [2, 7]: 16.2 h | Papp at 120 min, 10 μM [3]: < 0.0029 ×10⁻⁶ cm/s | intestinal permeability (in words) [4]: impermeable
